Assay results reported in ChEMBL document CHEMBL4376823, “The discovery of a potent and selective third-generation EGFR kinase inhibitor as a therapy for EGFR L858R/T790M double mutant non-small cell lung cancer” (Eur J Med Chem, 2019).

Experiments:
NCI-H1975 [1] = experiment: Antiproliferative activity against human NCI-H1975 cells expressing EGFR T790M/L858R mutant assessed as reduction in cell viability incubated for 72 hrs by MTT assay; format: functional, cell-based
[2] = target: Epidermal growth factor receptor (Homo sapiens, UniProt P00533, L858R/T790M); experiment: Inhibition of recombinant human GST-tagged EGFR T790M/L858R mutant expressed in baculovirus expression system using Tyr 04 as substrate incubated for 1 hr by Z'-LYTE assay
Chain of Epidermal growth factor receptor (Homo sapiens, UniProt P00533, L858R/T790M) (P00533 25-1210 T790M/L858R limits assumed): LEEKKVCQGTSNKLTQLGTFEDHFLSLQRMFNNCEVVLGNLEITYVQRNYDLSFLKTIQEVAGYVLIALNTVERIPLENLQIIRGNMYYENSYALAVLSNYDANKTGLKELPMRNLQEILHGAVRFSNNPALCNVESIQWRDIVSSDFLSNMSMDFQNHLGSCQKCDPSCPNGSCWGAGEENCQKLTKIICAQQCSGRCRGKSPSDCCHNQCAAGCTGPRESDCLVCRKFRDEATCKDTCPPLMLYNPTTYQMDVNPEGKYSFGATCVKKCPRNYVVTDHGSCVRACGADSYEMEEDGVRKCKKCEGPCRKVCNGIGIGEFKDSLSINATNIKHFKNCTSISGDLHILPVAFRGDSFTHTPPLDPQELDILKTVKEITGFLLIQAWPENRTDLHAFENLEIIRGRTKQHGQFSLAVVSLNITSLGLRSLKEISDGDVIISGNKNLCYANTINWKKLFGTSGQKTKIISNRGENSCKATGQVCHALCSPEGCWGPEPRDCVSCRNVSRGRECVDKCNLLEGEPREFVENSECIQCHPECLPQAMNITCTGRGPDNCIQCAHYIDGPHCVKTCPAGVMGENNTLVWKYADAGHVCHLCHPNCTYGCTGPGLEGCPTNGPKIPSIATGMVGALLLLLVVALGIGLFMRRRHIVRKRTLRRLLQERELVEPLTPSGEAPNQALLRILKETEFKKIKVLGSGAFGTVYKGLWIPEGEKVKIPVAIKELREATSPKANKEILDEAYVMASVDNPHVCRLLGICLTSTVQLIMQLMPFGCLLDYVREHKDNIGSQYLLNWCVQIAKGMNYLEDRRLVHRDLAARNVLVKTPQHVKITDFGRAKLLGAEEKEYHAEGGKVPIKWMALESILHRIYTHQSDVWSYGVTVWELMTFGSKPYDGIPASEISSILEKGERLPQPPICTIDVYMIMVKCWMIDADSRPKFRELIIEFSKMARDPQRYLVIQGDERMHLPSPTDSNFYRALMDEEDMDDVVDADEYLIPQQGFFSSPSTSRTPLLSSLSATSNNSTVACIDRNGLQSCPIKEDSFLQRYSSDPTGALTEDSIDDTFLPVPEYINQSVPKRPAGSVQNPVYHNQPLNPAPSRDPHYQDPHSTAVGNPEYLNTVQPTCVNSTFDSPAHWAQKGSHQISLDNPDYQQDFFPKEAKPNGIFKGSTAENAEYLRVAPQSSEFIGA

NCI-H292 = experiment: Antiproliferative activity against human NCI-H292 cells expressing EGFR assessed as reduction in cell viability incubated for 72 hrs by MTT assay; format: functional, cell-based
PC-9 = experiment: Antiproliferative activity against human PC9 cells expressing EGFR L858R mutant assessed as reduction in cell viability incubated for 72 hrs by MTT assay; format: functional, cell-based
[3] = target: Epidermal growth factor receptor (Homo sapiens, UniProt P00533); experiment: Inhibition of recombinant human GST-tagged EGFR (668 to 1210 residues) expressed in baculovirus expression system using Tyr 04 as substrate incubated for 1 hr by Z'-LYTE assay
Chain of Epidermal growth factor receptor (Homo sapiens, UniProt P00533) (P00533 whole entry, the tested form may be a part): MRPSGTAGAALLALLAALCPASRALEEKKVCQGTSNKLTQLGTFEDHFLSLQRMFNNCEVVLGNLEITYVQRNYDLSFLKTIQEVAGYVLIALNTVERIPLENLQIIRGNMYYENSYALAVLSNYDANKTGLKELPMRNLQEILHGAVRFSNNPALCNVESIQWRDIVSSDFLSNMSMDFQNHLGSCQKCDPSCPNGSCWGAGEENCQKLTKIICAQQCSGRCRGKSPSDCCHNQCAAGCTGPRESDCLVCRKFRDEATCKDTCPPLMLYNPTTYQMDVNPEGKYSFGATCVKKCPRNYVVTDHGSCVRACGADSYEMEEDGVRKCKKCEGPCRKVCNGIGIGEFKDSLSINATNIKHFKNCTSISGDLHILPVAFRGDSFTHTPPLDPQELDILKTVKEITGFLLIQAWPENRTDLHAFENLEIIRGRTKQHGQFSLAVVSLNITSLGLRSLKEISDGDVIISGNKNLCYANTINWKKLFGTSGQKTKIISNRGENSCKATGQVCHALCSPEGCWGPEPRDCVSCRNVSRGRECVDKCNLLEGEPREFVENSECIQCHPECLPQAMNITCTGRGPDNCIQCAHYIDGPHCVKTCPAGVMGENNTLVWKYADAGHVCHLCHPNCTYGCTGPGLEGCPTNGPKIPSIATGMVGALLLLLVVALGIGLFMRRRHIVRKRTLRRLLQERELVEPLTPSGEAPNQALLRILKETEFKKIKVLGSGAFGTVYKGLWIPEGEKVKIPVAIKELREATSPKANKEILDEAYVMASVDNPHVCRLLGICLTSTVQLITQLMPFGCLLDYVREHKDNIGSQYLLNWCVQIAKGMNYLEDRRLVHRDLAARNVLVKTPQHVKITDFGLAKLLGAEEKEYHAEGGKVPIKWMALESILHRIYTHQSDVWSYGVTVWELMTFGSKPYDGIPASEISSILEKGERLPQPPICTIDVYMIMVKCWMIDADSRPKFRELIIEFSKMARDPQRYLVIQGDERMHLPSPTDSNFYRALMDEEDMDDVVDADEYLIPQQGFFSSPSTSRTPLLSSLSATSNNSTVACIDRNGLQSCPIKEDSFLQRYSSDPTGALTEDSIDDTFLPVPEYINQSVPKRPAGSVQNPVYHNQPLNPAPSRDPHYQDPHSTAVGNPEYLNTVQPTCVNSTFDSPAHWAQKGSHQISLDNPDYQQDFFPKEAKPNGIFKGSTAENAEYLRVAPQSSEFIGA

[4] = target: Epidermal growth factor receptor (Homo sapiens, UniProt P00533, L858R); experiment: Inhibition of recombinant human GST-tagged EGFR L858R mutant expressed in baculovirus expression system using Tyr 04 as substrate incubated for 1 hr by Z'-LYTE assay
Chain of Epidermal growth factor receptor (Homo sapiens, UniProt P00533, L858R) (P00533 25-1210 L858R limits assumed): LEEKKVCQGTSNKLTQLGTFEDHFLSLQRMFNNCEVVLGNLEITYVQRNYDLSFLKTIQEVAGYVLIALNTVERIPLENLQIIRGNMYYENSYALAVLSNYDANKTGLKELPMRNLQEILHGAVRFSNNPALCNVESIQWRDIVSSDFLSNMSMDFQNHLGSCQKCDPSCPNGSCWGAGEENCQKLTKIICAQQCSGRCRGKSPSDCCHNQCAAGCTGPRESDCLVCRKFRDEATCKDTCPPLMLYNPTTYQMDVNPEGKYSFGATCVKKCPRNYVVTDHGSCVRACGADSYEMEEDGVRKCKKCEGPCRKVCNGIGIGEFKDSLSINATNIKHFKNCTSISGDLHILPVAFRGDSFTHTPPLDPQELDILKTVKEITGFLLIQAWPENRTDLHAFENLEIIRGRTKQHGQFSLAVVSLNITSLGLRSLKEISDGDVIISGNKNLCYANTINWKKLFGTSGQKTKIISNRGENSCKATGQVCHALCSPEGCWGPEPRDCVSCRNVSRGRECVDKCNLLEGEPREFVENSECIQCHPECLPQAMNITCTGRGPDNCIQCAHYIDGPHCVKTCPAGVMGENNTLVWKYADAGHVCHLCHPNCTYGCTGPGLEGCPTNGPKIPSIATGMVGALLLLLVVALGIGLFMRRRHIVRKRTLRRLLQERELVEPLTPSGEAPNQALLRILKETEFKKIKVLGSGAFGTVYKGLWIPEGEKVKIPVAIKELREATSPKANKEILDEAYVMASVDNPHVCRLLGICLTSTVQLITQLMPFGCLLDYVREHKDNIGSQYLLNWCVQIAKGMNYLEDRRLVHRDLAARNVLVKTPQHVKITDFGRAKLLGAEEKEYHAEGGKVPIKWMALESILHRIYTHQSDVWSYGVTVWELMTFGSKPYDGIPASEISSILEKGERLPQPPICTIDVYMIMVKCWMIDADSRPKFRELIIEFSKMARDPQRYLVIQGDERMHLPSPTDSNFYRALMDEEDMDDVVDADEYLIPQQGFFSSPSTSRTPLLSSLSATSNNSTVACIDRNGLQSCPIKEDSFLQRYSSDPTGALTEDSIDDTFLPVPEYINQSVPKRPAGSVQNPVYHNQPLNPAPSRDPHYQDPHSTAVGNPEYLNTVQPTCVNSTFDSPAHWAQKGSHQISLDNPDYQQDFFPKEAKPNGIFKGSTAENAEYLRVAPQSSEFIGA

NCI-H1975 [5] = experiment: Antitumor activity against human NCI-H1975 cells xenografted in BALB/c mouse assessed as tumor volume at 20 mg/kg, ig for one week (reference value: 835.52 mm3); format: functional
[6] = Toxicity in BALB/c mouse xenografted with human NCI-H1975 cells assessed as mortality at 10 to 20 mg/kg, ig for one week; format: organism-based; settings: in vivo, po
[7] = Toxicity in BALB/c mouse xenografted with human NCI-H1975 cells assessed as body weight at 20 mg/kg, ig for one week (reference value: 1.6 g); format: organism-based; settings: in vivo, po
NCI-H1975 [8] = experiment: Antitumor activity against human NCI-H1975 cells xenografted in BALB/c mouse assessed as tumor growth inhibition at 20 mg/kg, ig for one week; format: functional
L02 [9] = experiment: Cytotoxicity against human LO2 cells assessed as change in cell morphology at 5 and 10 uM incubated for 48 hrs by microscopic analysis; format: cell-based; settings: l02, 48 h
L02 [10] = experiment: Cytotoxicity against human LO2 cells expressing EGFR assessed as reduction in cell viability incubated for 72 hrs by MTT assay; format: cell-based; settings: L02, 72 h
[11] = Selectivity index, ratio of IC50 for human LO2 cells to IC50 for human NCI-H1975 cells expressing EGFR T790M/L858R mutant; format: toxicity
[12] = Cytotoxicity against human HLF cells expressing EGFR assessed as reduction in cell viability incubated for 72 hrs by MTT assay; format: cell-based
[13] = Selectivity index, ratio of IC50 for human BJ cells to IC50 for human NCI-H1975 cells expressing EGFR T790M/L858R mutant; format: toxicity
HK-2 [14] = experiment: Cytotoxicity against human HK2 cells expressing EGFR assessed as reduction in cell viability incubated for 72 hrs by MTT assay; format: cell-based; settings: HK-2, 72 h
BJ = experiment: Cytotoxicity against human BJ cells expressing EGFR assessed as reduction in cell viability incubated for 72 hrs by MTT assay; format: cell-based
HK-2 [15] = experiment: Cytotoxicity against human HK2 cells assessed as change in cell morphology at 5 and 10 uM incubated for 48 hrs by microscopic analysis; format: cell-based; settings: hk-2, 48 h
[16] = Cytotoxicity against human HEK293A cells assessed as change in cell morphology at 5 and 10 uM incubated for 48 hrs by microscopic analysis; format: cell-based; settings: hek293-a
[17] = Cytotoxicity against human HEK293A cells expressing EGFR assessed as reduction in cell viability incubated for 72 hrs by MTT assay; format: cell-based, HEK293-A
[18] = Selectivity index, ratio of IC50 for human HEK293A cells to IC50 for human NCI-H1975 cells expressing EGFR T790M/L858R mutant; format: toxicity
[19] = Selectivity index, ratio of IC50 for human HLF cells to IC50 for human NCI-H1975 cells expressing EGFR T790M/L858R mutant
[20] = Selectivity index, ratio of IC50 for human HK2 cells to IC50 for human NCI-H1975 cells expressing EGFR T790M/L858R mutant
NCI-H1975 [21] = experiment: Antitumor activity against human NCI-H1975 cells xenografted in BALB/c mouse assessed as tumor volume at 10 mg/kg, ig for one week (reference value: 835.52 mm3); format: functional
NCI-H1975 [22] = experiment: Antitumor activity against human NCI-H1975 cells xenografted in BALB/c mouse assessed as tumor growth inhibition at 10 mg/kg, ig for one week; format: functional
[23] = Toxicity in BALB/c mouse xenografted with human NCI-H1975 cells assessed as body weight at 10 mg/kg, ig for one week (reference value: 1.6 g); format: organism-based; settings: in vivo, po
NCI-H1975 [24] = experiment: Antitumor activity against human NCI-H1975 cells xenografted in ig dosed BALB/c mouse assessed as tumor growth inhibition for one week; format: functional, organism-based
NCI-H1975 [25] = experiment: Inhibition of cell migration in human NCI-H1975 cells at 25 nM incubated for 24 hrs by phase contrast microscopy relative to control; format: functional
[26] = Mus musculus, NCI-H1975, po, 168 h, read-out: TGI

Row | Compound | IC50 (NCI-H1975 [1]; Homo sapiens, NCI-H1975, 72 h) [nM] | IC50 [2] [nM] | IC50 (NCI-H292; Homo sapiens, NCI-H292, 72 h) [nM] | IC50 (PC-9; Homo sapiens, PC-9, 72 h) [nM] | IC50 [3] [nM] | IC50 [4] [nM] | further results
1 | C=CC(=O)Nc1cc(Nc2nccc(-c3cn(C)c4ccccc34)n2)c(OC)cc1N(C)CC[S+](C)[O-] (stereo not given) | 1210 | 105 | 13900 | 1490 | 1740 | 475 | 
2 | C=CC(=O)Nc1cc(Nc2nccc(-c3cn(C)c4ccccc34)n2)c(OC)cc1N(C)CCCl | 654 | 122 | 12100 | 1100 | 1980 | 421 | 
3 | C=CC(=O)Nc1cc(Nc2nccc(-c3cn(C)c4ccccc34)n2)c(OC)cc1N1CCS(=O)(=O)CC1 | 96 | 38 | 3720 | 101 | 339 | 46 | 
4 | C=CC(=O)Nc1cc(Nc2nccc(-c3cn(C)c4ccccc34)n2)c(OC)cc1N1CC[S+]([O-])CC1 | 106 | 75 | 8360 | 177 | 421 | 65 | 
5 | C=CC(=O)Nc1cc(Nc2nccc(-c3cn(C)c4ccccc34)n2)c(OC)cc1N1CCSCC1 | 399 | 64 | 19300 | 308 | 522 | 79 | 
6 | C=CC(=O)Nc1cc(Nc2nccc(-c3cn(C)c4ccccc34)n2)c(OC)cc1N(C)CCO | 184 |  | 8320 | 137 |  |  | 
7 | C=CC(=O)Nc1cc(Nc2nccc(-c3cn(C)c4ccccc34)n2)c(OC)cc1N(C)CCN(C)C.O=S(=O)(O)O |  |  |  |  |  |  | Activity (NCI-H1975 [5]): 18.23 mm3; Activity [6]: Non-Toxic; Activity [7]: 1.9 g; TGI (NCI-H1975 [8]): 98.49%
8 | C=CC(=O)Nc1cc(Nc2nccc(-c3cn(C)c4ccccc34)n2)c(OC)cc1N(C)CCSC | 2800 | 215 | 17900 | 3900 | 1430 | 308 | 
9 | C=CC(=O)Nc1cc(Nc2nccc(-c3cn(C)c4ccccc34)n2)c(OC)cc1SCCN(C)C | 49 | 11 | 1040 | 44 | 329 | 14 | 
10 | C=CC(=O)Nc1cc(Nc2nccc(-c3cn(C)c4ccccc34)n2)c(OC)cc1S(=O)(=O)CCN(C)C | 992 |  | 6420 | 2280 |  |  | 
11 | C=CC(=O)Nc1cc(Nc2nccc(-c3cn(C)c4ccccc34)n2)c(OC)cc1[S+]([O-])CCN(C)C (racemic) | 13 | 5 | 1050 | 17 | 239 | 7 | Activity (L02 [9]): Non-Toxic; IC50 (L02 [10]): > 10000 nM; selectivity ratio ([11]; read-out: Ratio IC50): > 769; IC50 ([12]; Homo sapiens, HLF, 72 h): 9310 nM; selectivity ratio ([13]; read-out: Ratio IC50): > 769; IC50 (HK-2 [14]): > 10000 nM; IC50 (BJ): > 10000 nM; Activity (HK-2 [15]): Non-Toxic; Activity [16]: Non-Toxic; IC50 ([17]; hek293-a): 4190 nM; selectivity ratio ([18]; read-out: Ratio IC50): 322; Ratio IC50 [19]: 715; Ratio IC50 [20]: >769
12 | C=CC(=O)Nc1cc(Nc2nccc(-c3cn(C)c4ccccc34)n2)c(OC)cc1[S+]([O-])CCN(C)C.O=S(=O)(O)O (single isomer, unassigned; (+)) |  |  |  |  |  |  | Activity (NCI-H1975 [21]): 141.5 mm3; Activity (NCI-H1975 [5]): 117.87 mm3; TGI (NCI-H1975 [22]): 81.82%; Activity [23]: 2.1 g; Activity [7]: 2.1 g; TGI (NCI-H1975 [8]): 85.41%
13 | C=CC(=O)Nc1cc(Nc2nccc(-c3cn(C)c4ccccc34)n2)c(OC)cc1[S+]([O-])CCN(C)C (single isomer, unassigned; (+)) |  |  |  |  |  |  | TGI (NCI-H1975 [24]): Dose-dependent effect
14 | C=CC(=O)Nc1cc(Nc2nccc(-c3cn(C)c4ccccc34)n2)c(OC)cc1[S+]([O-])CCN(C)C.O=S(=O)(O)O (single isomer, unassigned; (-)) |  |  |  |  |  |  | Activity (NCI-H1975 [21]): 106.81 mm3; Activity (NCI-H1975 [5]): 48.23 mm3; inhibition in vivo at 10 mg/kg (NCI-H1975 [22]; [26]): 87.6%; Activity [6]: Non-Toxic; Activity [23]: 1.6 g; Activity [7]: 2.4 g; inhibition in vivo at 20 mg/kg (NCI-H1975 [8]; [26]): 94.3%
15 | C=CC(=O)Nc1cc(Nc2nccc(-c3cn(C)c4ccccc34)n2)c(OC)cc1[S+]([O-])CCN(C)C (stereo in doubt; (+)-4i) |  | 5 |  |  | 318 | 6 | IC50 (NCI-H1975 [1]; nci-h1975): 16 nM; Ratio IC50 [11]: > 625; IC50 [12]: 9720 nM; Ratio IC50 [13]: > 625; IC50 (NCI-H292; nci-h292): 1340 nM; IC50 (PC-9; pc-9): 18 nM; IC50 ([17]; hek293-a): 3730 nM; Ratio IC50 [18]: 233; Ratio IC50 [19]: 233; Ratio IC50 [20]: >625
16 | C=CC(=O)Nc1cc(Nc2nccc(-c3cn(C)c4ccccc34)n2)c(OC)cc1N(C)CCN(C)C [OSIMERTINIB] | […] |  | 1080 | […] |  |  | Activity (L02 [9]): Toxic; IC50 (L02 [10]): […]; IC50 ([12]; Homo sapiens, HLF, 72 h): 8740 nM; IC50 (HK-2 [14]): 3560 nM; IC50 (BJ): > 10000 nM; Activity (HK-2 [15]): Toxic; Activity [16]: Toxic; IC50 ([17]; Homo sapiens, HEK293-A, 72 h): 2420 nM; inhibition (INH) (NCI-H1975 [25]): 60.54%
